{
  "source": "PubChem BioAssay AID1963449",
  "about": "(Molecular Pharmacology Branch, DTP, NCI, 2024);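 further: spheroids exposed to compounds for 7 days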",
  "system": "596521-263-R-J1-PDC complex spheroid growth",
  "assay": "Anticancer human tumor 596521-263-R-J1-PDC patient-derived soft tissue sarcoma cell line growth inhibition [Asc]",
  "conditions": "for IC50: curve of first compound; for viability, T/C: stronger effect = lower value",
  "summary_of_the_method": "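Tumor cells were grown as complex spheroids with human endothelial cells (HUVEC) and human mesenchymal stem cells as stroma. Agents were tested alone and in combination, in half-log steps down from the clinical Cmax, or from 10 microM where Cmax was unknown.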",
  "data": [
    {"smiles": "Cc1nc(N2CCC3(CC2)COC(C)C3N)c(CO)nc1Sc1ccnc(N)c1Cl", "note": "(centres undefined) + CNC(C)C(=O)NC1CN(S(=O)(=O)c2cccc(S(=O)(=O)N3CCC4CCC(C(=O)NC(c5ccccc5)c5ccccc5)N4C(=O)C(NC(=O)C(C)NC)C3)c2)CCC2CCC(C(=O)NC(c3ccccc3)c3ccccc3)N2C1=O", "values": [
      {"measurement": "IC50", "setting": "second compound 0.00316 µM", "result": "> 3000", "unit": "nM"},
      {"measurement": "IC50", "setting": "second compound 0.01 µM", "result": "> 3000", "unit": "nM"},
      {"measurement": "IC50", "setting": "second compound 0.0316 µM", "result": "> 3000", "unit": "nM"},
      {"measurement": "IC50", "setting": "second compound 0.1 µM", "result": 2250, "unit": "nM"},
      {"measurement": "IC50", "setting": "second compound 0.316 µM", "result": "> 3000", "unit": "nM"},
      {"measurement": "IC50", "setting": "second compound 1 µM", "result": 1620, "unit": "nM"},
      {"measurement": "viability, T/C", "setting": "second compound 0.00316 µM, first compound 0.00949 µM", "result": 101, "unit": "%"},
      {"measurement": "viability, T/C", "setting": "second compound 0.00316 µM, first compound 0.03 µM", "result": 93.3, "unit": "%"},
      {"measurement": "viability, T/C", "setting": "second compound 0.00316 µM, first compound 0.0949 µM", "result": 98.7, "unit": "%"},
      {"measurement": "viability, T/C", "setting": "second compound 0.00316 µM, first compound 0.3 µM", "result": 97.3, "unit": "%"},
      {"measurement": "viability, T/C", "setting": "second compound 0.00316 µM, first compound 0.949 µM", "result": 75.8, "unit": "%"},
      {"measurement": "viability, T/C", "setting": "second compound 0.00316 µM, first compound 3 µM", "result": 57.6, "unit": "%"},
      {"measurement": "viability, T/C", "setting": "second compound 0.01 µM, first compound 0.00949 µM", "result": 96.9, "unit": "%"},
      {"measurement": "viability, T/C", "setting": "second compound 0.01 µM, first compound 0.03 µM", "result": 87.4, "unit": "%"},
      {"measurement": "viability, T/C", "setting": "second compound 0.01 µM, first compound 0.0949 µM", "result": 89.8, "unit": "%"},
      {"measurement": "viability, T/C", "setting": "second compound 0.01 µM, first compound 0.3 µM", "result": 80.6, "unit": "%"},
      {"measurement": "viability, T/C", "setting": "second compound 0.01 µM, first compound 0.949 µM", "result": 73.1, "unit": "%"},
      {"measurement": "viability, T/C", "setting": "second compound 0.01 µM, first compound 3 µM", "result": 61, "unit": "%"},
      {"measurement": "viability, T/C", "setting": "second compound 0.0316 µM, first compound 0.00949 µM", "result": 102, "unit": "%"},
      {"measurement": "viability, T/C", "setting": "second compound 0.0316 µM, first compound 0.03 µM", "result": 82.2, "unit": "%"},
      {"measurement": "viability, T/C", "setting": "second compound 0.0316 µM, first compound 0.0949 µM", "result": 94.2, "unit": "%"},
      {"measurement": "viability, T/C", "setting": "second compound 0.0316 µM, first compound 0.3 µM", "result": 77, "unit": "%"},
      {"measurement": "viability, T/C", "setting": "second compound 0.0316 µM, first compound 0.949 µM", "result": 71.5, "unit": "%"},
      {"measurement": "viability, T/C", "setting": "second compound 0.0316 µM, first compound 3 µM", "result": 50.7, "unit": "%"},
      {"measurement": "viability, T/C", "setting": "second compound 0.1 µM, first compound 0.00949 µM", "result": 90.5, "unit": "%"},
      {"measurement": "viability, T/C", "setting": "second compound 0.1 µM, first compound 0.03 µM", "result": 82.2, "unit": "%"},
      {"measurement": "viability, T/C", "setting": "second compound 0.1 µM, first compound 0.0949 µM", "result": 77.1, "unit": "%"},
      {"measurement": "viability, T/C", "setting": "second compound 0.1 µM, first compound 0.3 µM", "result": 75.5, "unit": "%"},
      {"measurement": "viability, T/C", "setting": "second compound 0.1 µM, first compound 0.949 µM", "result": 63.1, "unit": "%"},
      {"measurement": "viability, T/C", "setting": "second compound 0.1 µM, first compound 3 µM", "result": 45.3, "unit": "%"},
      {"measurement": "viability, T/C", "setting": "second compound 0.316 µM, first compound 0.00949 µM", "result": 79.2, "unit": "%"},
      {"measurement": "viability, T/C", "setting": "second compound 0.316 µM, first compound 0.03 µM", "result": 81.5, "unit": "%"},
      {"measurement": "viability, T/C", "setting": "second compound 0.316 µM, first compound 0.0949 µM", "result": 78.9, "unit": "%"},
      {"measurement": "viability, T/C", "setting": "second compound 0.316 µM, first compound 0.3 µM", "result": 69.8, "unit": "%"},
      {"measurement": "viability, T/C", "setting": "second compound 0.316 µM, first compound 0.949 µM", "result": 67.7, "unit": "%"},
      {"measurement": "viability, T/C", "setting": "second compound 0.316 µM, first compound 3 µM", "result": 49.8, "unit": "%"},
      {"measurement": "viability, T/C", "setting": "second compound 1 µM, first compound 0.00949 µM", "result": 80.3, "unit": "%"},
      {"measurement": "viability, T/C", "setting": "second compound 1 µM, first compound 0.03 µM", "result": 71.2, "unit": "%"},
      {"measurement": "viability, T/C", "setting": "second compound 1 µM, first compound 0.0949 µM", "result": 72.4, "unit": "%"},
      {"measurement": "viability, T/C", "setting": "second compound 1 µM, first compound 0.3 µM", "result": 65.7, "unit": "%"},
      {"measurement": "viability, T/C", "setting": "second compound 1 µM, first compound 0.949 µM", "result": 58.5, "unit": "%"},
      {"measurement": "viability, T/C", "setting": "second compound 1 µM, first compound 3 µM", "result": 41.4, "unit": "%"}
    ]},
    {"smiles": "O=C(c1cc(Cc2n[nH]c(=O)c3ccccc23)ccc1F)N1CCN(C(=O)C2CC2)CC1", "note": "+ CNC(C)C(=O)NC1CN(S(=O)(=O)c2cccc(S(=O)(=O)N3CCC4CCC(C(=O)NC(c5ccccc5)c5ccccc5)N4C(=O)C(NC(=O)C(C)NC)C3)c2)CCC2CCC(C(=O)NC(c3ccccc3)c3ccccc3)N2C1=O", "values": [
      {"measurement": "IC50", "setting": "second compound 0.00316 µM", "result": "< 31.6", "unit": "nM"},
      {"measurement": "IC50", "setting": "second compound 0.01 µM", "result": 2080, "unit": "nM"},
      {"measurement": "IC50", "setting": "second compound 0.0316 µM", "result": 4760, "unit": "nM"},
      {"measurement": "IC50", "setting": "second compound 0.1 µM", "result": 3650, "unit": "nM"},
      {"measurement": "IC50", "setting": "second compound 0.316 µM", "result": 2910, "unit": "nM"},
      {"measurement": "IC50", "setting": "second compound 1 µM", "result": 2230, "unit": "nM"},
      {"measurement": "viability, T/C", "setting": "second compound 0.00316 µM, first compound 0.0316 µM", "result": 16.1, "unit": "%"},
      {"measurement": "viability, T/C", "setting": "second compound 0.00316 µM, first compound 0.1 µM", "result": 14.4, "unit": "%"},
      {"measurement": "viability, T/C", "setting": "second compound 0.00316 µM, first compound 0.316 µM", "result": 17.1, "unit": "%"},
      {"measurement": "viability, T/C", "setting": "second compound 0.00316 µM, first compound 1 µM", "result": 14.8, "unit": "%"},
      {"measurement": "viability, T/C", "setting": "second compound 0.00316 µM, first compound 3.16 µM", "result": 13.7, "unit": "%"},
      {"measurement": "viability, T/C", "setting": "second compound 0.00316 µM, first compound 10 µM", "result": 12.7, "unit": "%"},
      {"measurement": "viability, T/C", "setting": "second compound 0.01 µM, first compound 0.0316 µM", "result": 73.9, "unit": "%"},
      {"measurement": "viability, T/C", "setting": "second compound 0.01 µM, first compound 0.1 µM", "result": 61.2, "unit": "%"},
      {"measurement": "viability, T/C", "setting": "second compound 0.01 µM, first compound 0.316 µM", "result": 60.7, "unit": "%"},
      {"measurement": "viability, T/C", "setting": "second compound 0.01 µM, first compound 1 µM", "result": 64.3, "unit": "%"},
      {"measurement": "viability, T/C", "setting": "second compound 0.01 µM, first compound 3.16 µM", "result": 36.7, "unit": "%"},
      {"measurement": "viability, T/C", "setting": "second compound 0.01 µM, first compound 10 µM", "result": 45.1, "unit": "%"},
      {"measurement": "viability, T/C", "setting": "second compound 0.0316 µM, first compound 0.0316 µM", "result": 90.9, "unit": "%"},
      {"measurement": "viability, T/C", "setting": "second compound 0.0316 µM, first compound 0.1 µM", "result": 84.4, "unit": "%"},
      {"measurement": "viability, T/C", "setting": "second compound 0.0316 µM, first compound 0.316 µM", "result": 87.2, "unit": "%"},
      {"measurement": "viability, T/C", "setting": "second compound 0.0316 µM, first compound 1 µM", "result": 71.8, "unit": "%"},
      {"measurement": "viability, T/C", "setting": "second compound 0.0316 µM, first compound 3.16 µM", "result": 54.6, "unit": "%"},
      {"measurement": "viability, T/C", "setting": "second compound 0.0316 µM, first compound 10 µM", "result": 42.4, "unit": "%"},
      {"measurement": "viability, T/C", "setting": "second compound 0.1 µM, first compound 0.0316 µM", "result": 79.1, "unit": "%"},
      {"measurement": "viability, T/C", "setting": "second compound 0.1 µM, first compound 0.1 µM", "result": 73.4, "unit": "%"},
      {"measurement": "viability, T/C", "setting": "second compound 0.1 µM, first compound 0.316 µM", "result": 75.5, "unit": "%"},
      {"measurement": "viability, T/C", "setting": "second compound 0.1 µM, first compound 1 µM", "result": 78.1, "unit": "%"},
      {"measurement": "viability, T/C", "setting": "second compound 0.1 µM, first compound 3.16 µM", "result": 51.7, "unit": "%"},
      {"measurement": "viability, T/C", "setting": "second compound 0.1 µM, first compound 10 µM", "result": 37.7, "unit": "%"},
      {"measurement": "viability, T/C", "setting": "second compound 0.316 µM, first compound 0.0316 µM", "result": 77.4, "unit": "%"},
      {"measurement": "viability, T/C", "setting": "second compound 0.316 µM, first compound 0.1 µM", "result": 79.2, "unit": "%"},
      {"measurement": "viability, T/C", "setting": "second compound 0.316 µM, first compound 0.316 µM", "result": 80.5, "unit": "%"},
      {"measurement": "viability, T/C", "setting": "second compound 0.316 µM, first compound 1 µM", "result": 72.4, "unit": "%"},
      {"measurement": "viability, T/C", "setting": "second compound 0.316 µM, first compound 3.16 µM", "result": 48.4, "unit": "%"},
      {"measurement": "viability, T/C", "setting": "second compound 0.316 µM, first compound 10 µM", "result": 36, "unit": "%"},
      {"measurement": "viability, T/C", "setting": "second compound 1 µM, first compound 0.0316 µM", "result": 68.7, "unit": "%"},
      {"measurement": "viability, T/C", "setting": "second compound 1 µM, first compound 0.1 µM", "result": 71.5, "unit": "%"},
      {"measurement": "viability, T/C", "setting": "second compound 1 µM, first compound 0.316 µM", "result": 61.7, "unit": "%"},
      {"measurement": "viability, T/C", "setting": "second compound 1 µM, first compound 1 µM", "result": 69.1, "unit": "%"},
      {"measurement": "viability, T/C", "setting": "second compound 1 µM, first compound 3.16 µM", "result": 42.3, "unit": "%"},
      {"measurement": "viability, T/C", "setting": "second compound 1 µM, first compound 10 µM", "result": 31.3, "unit": "%"}
    ]}
  ]
}
